The test system of test [1] is primary human neonatal dermal fibroblasts (hNDFs). Put plainly: Spatial iN reprogramming in 3D spheroids (Tuj1 staining). It counts as cell-based. As to conditions: 3 days of reprogramming, relative to no-treatment controls. An excerpt:
For the reduction to practice, primary human neonatal dermal fibroblasts (hNDFs) were transduced with doxycycline (Dox)-inducible lentiviral vectors for the BAMN factors. After Dox induction in monolayer to ensure unbiased activation of the transgenes, hNDFs were either plated onto Matrigel-coated cover slips as 2D controls or centrifuged in microwells to form 3D aggregates, or “spheroids” (FIG. 9A). The expression of neuron-specific β-tubulin III (Tuj1) was used as a marker of neuronal fate, as is convention. Tuj1 expression began earlier in spheroids than in 2D culture, appearing as early as day 2 (two days after Dox induction and one day after spheroid formation) (FIG. 9BC). To evaluate relative reprogramming efficiency, spheroids were replated onto Matrigel-coated cover slips after three days without enzymatic disaggregation.
Direct reprogramming involves both disruption of the existing regulatory network (generally early on) and establishment of another. The initial nonspecific disruption is often mechanistically associated with cell cycle regulation, cell senescence, chromatin inactivation, and genome stability. To assess the impact of mechanobiological changes associated with spheroid culture on direct reprogramming, primary human neonatal dermal fibroblasts (hNDFs) were transduced with doxycycline (dox)-inducible lentiviral vectors for the BAMN factors. […]

Test [2] relates to BAM-transduced fibroblasts. Description: iN reprogramming of BAM-transduced fibroblasts with chemical/siRNA treatment and microfluidic squeezing (Tuj1 staining, day 7). It counts as cell-based, mouse. The following applies: for iN reprogramming efficiency: agent alone without squeezing, vs control, Bix01294 1 μM, JIB-04 100 nM, Decitabine 0.5 μM, 24 hours; for nuclear deformation-induced iN reprogramming efficiency: pre-treatment followed by squeezing in 7-μm microchannels, vs squeezed-only group; for increase of iN conversion: alone, at its optimal concentration. The protocol: Fibroblasts were isolated from ear tissues of adult (1 month-old) C57BL/6 mice, Tau-EGFP reporter mice (Jackson Laboratory, 004779) and R26-M2rtTA;Col1a1-tetO-H2B-GFP compound mutant mice (Jackson Laboratory, 016836), and expanded in fibroblast medium: DMEM (Gibco, 11965), 10% fetal bovine serum (FBS; Gibco, 26140079) and 1% penicillin/streptomycin (GIBCO, 15140122). For all experiments, passage-2 cells were used and synchronized upon reaching 80% confluency using DMEM with 1% FBS for 24 hours before the transduction with viruses containing BAM constructs. The following day (day 0) the medium was changed to mouse embryonic fibroblasts (MEF) medium containing doxycycline (2 ng/ml, Sigma) to initiate the expression of the transgenes and thus, reprogramming. After 6 hours, transduced fibroblasts were passaged, and either subjected to microfluidic deformation using microchannels of various widths. Cells were then seeded onto glass slides coated with 0.1 mg/mL fibronectin (ThermoFisher, 33016015) overnight at a density of 3,000 cells/cm^2. Twenty-four hours later (day 1), cells were cultured in N2B27 medium: DMEM/F12 (Gibco, 11320033), N-2 supplement (Gibco, 17502048), B-27 supplement (Gibco, 17504044), 1% penicillin/streptomycin, and doxycycline (2 ng/ml), and half medium changes were performed every 2 days. On day 7 after microfluidic deformation, cells were fixed and stained for Tuj1 to determine the reprogramming efficiency. iN cells were identified based on positive Tuj1 staining and a neuronal morphology. The reprogramming efficiency was determined as the percentage of iN cells on day 7 relative to the number of the cells initially seeded. For long-term studies where maturation and functionality of the iN cells were examined, cells were kept in culture for 5 weeks. Reprogramming of iPSC from wild-type fibroblasts was performed as described previously^18.
To determine the role of H3K9 methylation in microfluidic device-induced iN reprogramming, BAM-transduced fibroblasts were treated with the H3K9 methyltransferase inhibitor Bix-01294 (Cayman chemical, 13124) or demethylase inhibitor JIB-04 (Cayman chemical, 15338) at the indicated concentrations for 24 hours prior to introduction into the microdevice. Parallel conditions with DMSO served as a control. The iN reprogramming efficiency was determined via Tuj1 staining 7 days after squeezing.
To determine the involvement of ion channels in microfluidic device-induced iN reprogramming, calcium channel blocker Amlodipine (Cayman chemical, 14838), potassium channel blocker Quinine (Cayman chemical, 23958) and sodium channel blocker procainamide (Cayman chemical, 24359) were used to inhibit calcium, potassium, and sodium ion channels, respectively. BAM-transduced fibroblasts were treated with small molecule blockers at the indicated concentrations for 12 hours prior to being introduced into the microfluidic device. Parallel conditions with DMSO served as a control. The iN reprogramming efficiency was determined via Tuj1 staining 7 days after squeezing.

Test [3] has as its system BAM-transduced fibroblasts. Description: iN reprogramming of BAM-transduced fibroblasts with cytoskeletal and adhesion inhibitors (TUBB3+ iN cells, 2 weeks). It counts as cell-based, mouse. As to conditions: Y-27632 20 μM, nocodazole 0.3 μM, cytochalasin D 1 μM, jasplakinolide 0.05 μM; U0126 various doses. The protocol: To examine whether these changes in cell stiffness, actin structure and expression of contractility-mediating genes were involved in iN reprogramming, we evaluated the effects of disrupting the cytoskeleton using small molecule inhibitors. For these experiments, BAM-transduced fibroblasts were reprogrammed as in FIG. 1A and chemical compounds known to perturb the cytoskeleton were added to the culture medium on day 1 to evaluate their effects on the reprogramming process. […] The reprogramming efficiency was determined as the percentage of TUBB3*-iN cells normalized to the number of cells plated at 24 hours post-seeding (i.e., day 0). First, we tested whether disruption of cytoskeletal contractility could influence the direct reprogramming of fibroblasts into neurons using blebbistatin, a non-muscle myosin II inhibitor^22-24. We observed that iN cells could be derived in the absence and presence of blebbistatin (FIG. 3A). […] In particular, treatment with 10 μM blebbistatin generated the highest number of iN cells and increased the reprogramming efficiency by approximately 4.5-fold compared to the control, therefore, this concentration was used in all subsequent experiments. […] As Ascl1 has been identified as a pioneer factor for iN reprogramming and transduction of Ascl1 alone is sufficient to generate iN cells^25,26, we further investigated whether blebbistatin could influence iN conversion by Ascl1 induction.
After transduction, mouse fibroblasts were seeded onto multi-well tissue culture-treated polystyrene dishes (Falcon) coated with laminin (0.1 mg/ml, Corning) at 4,000 cells per cm^2. Twenty-four hours after seeding, the medium was replaced to MEF medium containing doxycycline (2 μg/ml, Sigma). The following day (i.e., day 1) the medium was changed to N3 medium (DMEM/F12 [GIBCO]+N2 supplement [Invitrogen]+B27 supplement [Invitrogen]+1% penicillin/streptomycin [Gibco]+ doxycycline [2 μg/ml, Sigma]) and the cultures were maintained in this medium for the duration of the experiments. For Ascl1-only reprogramming, N3 medium was further supplemented with BDNF (5 ng/ml, R&D systems) and GDNF (5 ng/ml, R&D systems) after day 7. For cytoskeletal and cell adhesion disruptions, Blebbistatin (Millipore), Y-27632 (20 μM; Cayman Chemical), Nocodazole (0.3 μM; Sigma), Cytochalasin D (1 μM; Sigma), Jasplakinolide (0.05 μM; Cayman Chemical) and PF573228 (Sigma) were administered in N3 medium on day 1 and for the first 7 days of reprogramming (unless stated otherwise) and used at the indicated concentrations. Culture medium was replenished every 2 days during reprogramming to maintain the activity of the small molecules. After culturing for the desired length (14 days for BAM and 21 days for Ascl1 only), the induced neuronal (iN) cells were analyzed and the reprogramming efficiency was determined.
The reprogramming efficiency was determined by as the percentage of TUBB3^+ iN cells in each condition normalized to the number of cells plated at 24 hours post-seeding. Epifluorescence images were collected using a Zeiss Axio Observer.D1, Zeiss Axio Observer.Z1, and ImageXpress Micro XLS System (Molecular Devices), whereas confocal images were acquired using a Zeiss LSM710 microscope and Leica SP8 Confocal Laser Scanning microscope.

In test [4] the test system is H3K9me3. Description: H3K9me3 level in fibroblasts (immunostaining). It counts as cell-based, mouse. As to conditions: for H3K9me3 level: agent alone. On the procedure:
Samples collected for immunofluorescence staining at the indicated time points were washed once with PBS and fixed in 4% paraformaldehyde for 15 minutes. Samples were washed three times with PBS for 5 minutes each and permeabilized using 0.5% Triton X-100 for 10 minutes. After three subsequent PBS washes, samples were blocked with 5% normal donkey serum (NDS; Jackson Immunoresearch, 017000121) in PBS for 1 hour. Samples were incubated with primary antibodies (Supplementary Table S1 in Song et al.) in antibody dilution buffer (1% normal donkey serum (NDS)+0.1% Triton X-100 in PBS) for either 1 hour or overnight at 4° C. followed by three PBS washes and a 1-hour incubation with Alexa Fluor® 488- and/or Alexa Fluor® 546-conjugated secondary antibodies (Molecular Probes). Nuclei were stained with DAPI in PBS for 10 minutes. Epifluorescence images were collected using a Zeiss Axio Observer Z1 inverted fluorescence microscope and analyzed using ImageJ. Confocal images were collected using a Leica SP8-STED/FLIM/FCS Confocal and analyzed using ImageJ.
Average lamin and histone marker intensities per nuclei were quantified using an ImageJ macro. Gaussian blur, thresholding, watershed, and analyze particle functions were applied to the DAPI channel to create individual selections for each nucleus. This mask was applied to the corresponding stain image to measure the average fluorescence intensity within each nucleus.

Test [5] concerns histone marks. Put plainly: Immunofluorescence of histone marks in non-transduced fibroblasts. As to conditions: for euchromatin marks (AcH3, H3K4me3, H3K4me1): global, 10 μM blebbistatin or 5 μM PF573228, 2 hours, vs control; for histone trends compared with blebbistatin: other cytoskeletal compounds. It is filed as cell-based, mouse. On the procedure:
For immunostaining, cells were fixed with 4% paraformaldehyde (Electron Microscopy Sciences), permeabilized with 0.5% Triton-X-100 (Sigma), and blocked with 5% donkey serum (Jackson Immunoresearch) in phosphate buffered saline (PBS). For actin-cytoskeleton staining, samples were incubated with fluorescein isothiocyanate-conjugated phalloidin (Invitrogen) for 1 hour. Primary antibodies were incubated for 1 hour at room temperature or overnight at 4° C., followed by 1-hour incubation with Alexa 488 and/or Alexa 546-labeled secondary antibodies (Molecular Probes). Nuclei were stained with 4,6-diamino-2-phenylindole (DAPI) (Invitrogen).
Quantification of histone intensity per nuclei was performed using an ImageJ macro. DAPI-stained nuclei were segmented using gaussian blur, thresholding, watershed, and analyze particle functions to identify individual nuclei. This mask was applied to the corresponding stained fluorescence channel to quantify the average fluorescence intensity within each nucleus.

“Also recorded” adds a separate entry of the source.

With `Cc1cccc(-c2nn(C(=S)Nc3ccccc3)cc2-c2ccnc3ccccc23)n1` [A83-01], the “spatial Tuj1+ reprogramming patterns, inhibitor alone” value in test [1] is given as “did not affect spatial Tuj1+ reprogramming patterns”.

With `CCCC(CCC)C(=O)O` [valproic acid], in test [2], the iN reprogramming efficiency result is “slightly increased iN reprogramming efficiency” and the “nuclear deformation-induced iN reprogramming efficiency” value is “additive to mechanical squeezing”.

On to `Nc1ncn([C@H]2C[C@H](O)[C@@H](CO)O2)c(=O)n1` [Decitabine], for which the “increase of iN conversion” value in test [2] was “about 2 fold”.

In the case of `C[C@@H](N)[C@H]1CC[C@H](C(=O)Nc2ccncc2)CC1` [Y-27632], the “reprogramming efficiency relative to control” value in test [3] is reported as “increased the yield of iN cells similar to blebbistatin, although to a lesser degree”.

For `Clc1ccc(N/N=C(\c2ccccc2)c2ccccn2)nc1` [JIB-04], in test [2], the iN reprogramming efficiency entry is “reduced the reprogramming efficiency compared to the control” and the “nuclear deformation-induced iN reprogramming efficiency” value is “strikingly suppressed nuclear deformation-induced iN reprogramming”. Also, the H3K9me3 level entry in test [4] was “significantly increased H3K9me3”. Also, the “decrease of H3K9me3 by squeezing” value in test [4] (pre-treated for 24 hours, then 7-μm channels) was “much less than the group without JIB-04 treatment”.

For `C/C1=C\[C@H](C)C[C@H](C)OC(=O)C[C@H](c2ccc(O)cc2)NC(=O)[C@@H](Cc2c(Br)[nH]c3ccccc23)N(C)C(=O)[C@H](C)NC(=O)[C@@H](C)C1` [jasplakinolide], in test [3], the “reprogramming efficiency relative to control” value was “reduced the reprogramming efficiency relative to control; also recorded: inhibiting iN conversion”. In addition, in test [5], the “euchromatin marks (AcH3, H3K4me3, H3K4me1)” value (from here on “euchromatin marks”) is “decreasing euchromatin marks (e.g., AcH3)” and the “histone trends compared with blebbistatin” value is given as “no other cytoskeletal disrupting compounds”.

Take `C=C1[C@@H](C)[C@H]2[C@H](Cc3ccccc3)NC(=O)[C@]23[C@H](OC(C)=O)/C=C/[C@@](C)(O)C(=O)[C@@H](C)C/C=C/[C@H]3[C@@H]1O` [cytochalasin D]: the “reprogramming efficiency relative to control” value in test [3] is listed as “reduced the reprogramming efficiency relative to control; also recorded: inhibiting iN conversion”. Moreover, in test [5], the “euchromatin marks” value is reported as “decreasing euchromatin marks (e.g., AcH3)” and the “histone trends compared with blebbistatin” value is “no other cytoskeletal disrupting compounds”.

As to `N#CC(=C(/N)Sc1ccccc1N)/C(C#N)=C(\N)Sc1ccccc1N` [U0126], in test [3], the “reprogramming efficiency relative to control” value is listed as “not significantly altered”.

With `COc1cc2nc(N3CCCN(C)CC3)nc(NC3CCN(Cc4ccccc4)CC3)c2cc1OC` [Bix01294], in test [2], the iN reprogramming efficiency result is listed as “partially mimicked the squeezing effect on the reprogramming efficiency”, the “increase of iN conversion” value is given as “about 2 fold” and the “nuclear deformation-induced iN reprogramming efficiency” value was “slightly increased the reprogramming efficiency compared to the squeezed-only group”. For the same compound, in test [4], the H3K9me3 level result was “specifically suppressed H3K9me3 in a dose-dependent manner”.

Take `COC(=O)Nc1nc2ccc(C(=O)c3cccs3)cc2[nH]1` [nocodazole]: the “reprogramming efficiency relative to control” value in test [3] is on record as “resulted in a reduction in the reprogramming efficiency; also recorded: inhibiting iN conversion”. In test [5], the “euchromatin marks” value is given as “decreasing euchromatin marks (e.g., AcH3)” and the “histone trends compared with blebbistatin” value is “no other cytoskeletal disrupting compounds”.

The values are drawn from patent US20230381774A1, “MICROFLUDIC LAB-ON-CHIP DEVICE, MATRIX, SMALL MOLECULES AND THREE-DIMENSIONAL SPHEROIDS FOR CELL REPROGRAMMING” (The Regents of the University of California, priority 2022, published 2023).
